Several values for one entry are separate records, joined by “and”; a condition that tells them apart may be missing. Identical values can stand only once.
Target: T1, POsterior Segregation (Caenorhabditis elegans, UniProt G5EF15)
T1 sequence (G5EF15 whole entry): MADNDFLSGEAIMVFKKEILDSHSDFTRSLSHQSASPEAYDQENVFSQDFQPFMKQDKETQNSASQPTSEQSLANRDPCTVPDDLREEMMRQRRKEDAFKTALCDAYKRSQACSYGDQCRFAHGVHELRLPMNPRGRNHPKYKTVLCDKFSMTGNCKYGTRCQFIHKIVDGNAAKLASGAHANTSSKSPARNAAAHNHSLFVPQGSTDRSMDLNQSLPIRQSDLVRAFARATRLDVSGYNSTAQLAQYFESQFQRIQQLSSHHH
Assay: inhibitors of POS-1/mex-3 RNA binding, dose response, biochemical, fluorescence polarization (AID 1964)

SMILES | EC50
C=c1c(C(=O)OC)c(O)c(=Cc2cccs2)n1-c1ccc(Cl)cc1 [(5E)-1-(4-chlorophenyl)-2-methyl-4-oxo-5-(thiophen-2-ylmethylidene)-3-pyrrolecarboxylic acid methyl ester] | > 300 µM
CCOc1ccc(N2C(=O)NC(=O)C(=Cc3c[nH]c4ccccc34)C2=O)cc1 [(5E)-1-(4-ethoxyphenyl)-5-(1H-indol-3-ylmethylidene)-1,3-diazinane-2,4,6-trione] | 20.9 µM
O=C1NC(=S)N(c2ccc(F)cc2)C(=O)C1=Cc1ccco1 [(5E)-1-(4-fluorophenyl)-5-(2-furanylmethylidene)-2-sulfanylidene-1,3-diazinane-4,6-dione] | 10.4 µM
O=C1NC(=O)N(CCc2ccc(F)cc2)C(=O)C1=CNCCCn1ccnc1 [(5E)-1-[2-(4-fluorophenyl)ethyl]-5-[(3-imidazol-1-ylpropylamino)methylene]barbituric acid] | > 300 µM
C=CCN1C(=O)NC(=O)C(=CNc2ccc(N(CC)CC)cc2)C1=O [(5E)-1-allyl-5-[[4-(diethylamino)anilino]methylene]barbituric acid] | 109 µM
CCN(CC)c1ccc(NC=C2C(=O)NC(=O)N(Cc3ccccc3)C2=O)cc1 [(5E)-1-benzyl-5-[[4-(diethylamino)anilino]methylene]barbituric acid] | 30.1 µM and > 300 µM
O=C1NC(=O)N(Cc2ccccc2)C(=O)C1=CNc1ccc(CN2CCOCC2)cc1 [(5E)-1-benzyl-5-[[4-(morpholin-4-ylmethyl)anilino]methylidene]-1,3-diazinane-2,4,6-trione] | > 300 µM
Cc1c(NC=C2C(=O)NC(=O)N(Cc3ccccc3)C2=O)c(=O)n(-c2ccccc2)n1C [(5E)-1-benzyl-5-[[(1,5-dimethyl-3-oxo-2-phenylpyrazol-4-yl)amino]methylidene]-1,3-diazinane-2,4,6-trione] | > 300 µM
CCCCCCN1C(=O)NC(=O)C(=CNCCCn2ccnc2)C1=O [(5E)-1-hexyl-5-[[3-(1-imidazolyl)propylamino]methylidene]-1,3-diazinane-2,4,6-trione] | > 300 µM
O=C1NC(=O)N(CCc2ccccc2)C(=O)C1=CNCCCn1ccnc1 [(5E)-5-[(3-imidazol-1-ylpropylamino)methylene]-1-phenethyl-barbituric acid] | > 300 µM
COc1ccc(N2C(=O)NC(=O)C(=Cc3c[nH]c4ccc(Br)cc34)C2=O)c(OC)c1 [(5E)-5-[(5-bromo-1H-indol-3-yl)methylene]-1-(2,4-dimethoxyphenyl)pyrimidine-2,4,6(1H,3H,5H)-trione] | > 300 µM
CCN(CC)CCNC=C1C(=O)NC(=O)N(CCc2ccccc2)C1=O [(5E)-5-[[2-(diethylamino)ethylamino]methylene]-1-phenethyl-barbituric acid] | > 300 µM
CN(C)CCCNC=C1C(=O)NC(=O)N(CCc2ccc(F)cc2)C1=O [(5E)-5-[[3-(dimethylamino)propylamino]methylene]-1-[2-(4-fluorophenyl)ethyl]barbituric acid] | > 300 µM
CN(C)c1ccc(NC=C2C(=O)NC(=O)N(CCC3=CCCCC3)C2=O)cc1 [(5Z)-1-[2-(cyclohexen-1-yl)ethyl]-5-[[[4-(dimethylamino)phenyl]amino]methylidene]-1,3-diazinane-2,4,6-trione] | > 300 µM
CCN(CC)CCNC=C1C(=O)NC(=O)N(Cc2ccccc2)C1=O [(5Z)-1-benzyl-5-[[2-(diethylamino)ethylamino]methylene]barbituric acid] | > 300 µM
CCOC(=O)C1C(=O)C(=Cc2cn(CC(=O)N3CCCC3)c3ccccc23)S/C1=N\c1ccccc1 (configuration not stated) [(5Z)-2-anilino-4-keto-5-[[1-(2-keto-2-pyrrolidino-ethyl)indol-3-yl]methylene]thiophene-3-carboxylic acid ethyl ester] | 47.5 µM
C/N=C1/S/C(=C\c2ccc(N3CCCC3)c(F)c2)C(=O)N1C [(5Z)-5-(3-fluoro-4-pyrrolidino-benzylidene)-3-methyl-2-methylimino-thiazolidin-4-one] | 5.9 µM
CC1=C(C#N)C(=O)N(C)C(=O)C1=CN [(5Z)-5-(aminomethylidene)-1,4-dimethyl-2,6-dioxopyridine-3-carbonitrile] | > 300 µM
C=CCN1C(=O)NC(=O)C(=CCC=Nc2ccccc2)C1=O [(5Z)-5-[(E)-3-phenylazanylprop-2-enylidene]-1-prop-2-enyl-1,3-diazinane-2,4,6-trione] | > 300 µM
Cc1cc(C=C2C(=O)NC(=O)N(c3ccccc3)C2=O)c(C)n1-c1ccc(F)cc1 [(5Z)-5-[[1-(4-fluorophenyl)-2,5-dimethyl-3-pyrrolyl]methylidene]-1-phenyl-1,3-diazinane-2,4,6-trione] | 101 µM
COc1cccc(CN=Nc2ncnc(N)c2[N+](=O)[O-])c1OC [(6-amino-5-nitro-pyrimidin-4-yl)-[(2,3-dimethoxybenzylidene)amino]amine] | 18.4 µM

SMILES | EC50
C=CCc1cccc(C=Nn2cnnc2)c1O [(6E)-2-allyl-6-[(1,2,4-triazol-4-ylamino)methylene]cyclohexa-2,4-dien-1-one] | 226 µM
COc1ccc(N=Cc2cc3c(cc2O)OC(=N)C(C#N)C3c2ccccc2)cc1 (configuration not stated) [(6E)-2-amino-6-[(4-methoxyanilino)methylidene]-7-oxo-4-phenyl-4H-1-benzopyran-3-carbonitrile] | > 300 µM
Cc1n[nH]c(C)c1Sc1ccccc1/N=C/C1C=C(Cl)C=C([N+](=O)[O-])C1=O (configuration not stated) [(6E)-4-chloranyl-6-[[[2-[(3,5-dimethyl-1H-pyrazol-4-yl)sulfanyl]phenyl]amino]methylidene]-2-nitro-cyclohexa-2,4-dien-1-one] | > 300 µM
C=CC1=C(C(=O)O)N2C(=O)[C@@H](NC(=O)C(N=O)c3csc(N)n3)[C@H]2SC1 (stereo partly drawn) [(6R,7R)-7-[[2-(2-azanyl-1,3-thiazol-4-yl)-2-hydroxyimino-ethanoyl]amino]-3-ethenyl-8-oxidanylidene-5-thia-1-azabicyclo[4.2.0]oct-2-ene-2-carboxylic acid] | 49.8 µM
CCn1nc(C)c(C=C2CCCC3=C2OC(=N)C(C#N)C3c2c(C)nn(CC)c2C)c1C (configuration not stated) [(8E)-2-amino-4-(1-ethyl-3,5-dimethyl-1H-pyrazol-4-yl)-8-[(1-ethyl-3,5-dimethyl-1H-pyrazol-4-yl)methylene]-5,6,7,8-tetrahydro-4H-chromene-3-carbonitrile] | 36 µM
CCOC(=O)N1CCC2=C(C#N)C(=N)C(C#N)(C#N)[C@H](c3ccsc3)[C@H]2C1 [(8R,8aR)-6-amino-5,7,7-tricyano-8-(3-thienyl)-1,3,8,8a-tetrahydroisoquinoline-2-carboxylic acid ethyl ester] | 78.8 µM
N#CC1=C2CCOC[C@@H]2[C@@H](c2ccsc2)C(C#N)(C#N)C1=N [(8R,8aR)-6-amino-8-(3-thienyl)-1,3,8,8a-tetrahydroisochromene-5,7,7-tricarbonitrile] | > 300 µM
CN1CCC2=C(C#N)C(=N)C(C#N)(C#N)[C@H](c3cccc(Cl)c3)C2C1 (stereo partly drawn) [(8S)-6-amino-8-(3-chlorophenyl)-2-methyl-1,3,8,8a-tetrahydroisoquinoline-5,7,7-tricarbonitrile] | 12.5 µM
CC(C)(C)OC(=O)N1CCC2=C(C#N)C(=N)C(C#N)(C#N)[C@H](c3cccnc3)[C@H]2C1 [(8S,8aR)-6-amino-5,7,7-tricyano-8-(3-pyridinyl)-1,3,8,8a-tetrahydroisoquinoline-2-carboxylic acid tert-butyl ester] | 61.7 µM
C[C@@H]1O[C@@H](O[C@@H]2[C@@H](O)[C@H](OCCc3ccc(O)c(O)c3)O[C@H](CO)[C@H]2OC(=O)/C=C/c2ccc(O)c(O)c2)[C@H](O)[C@H](O)[C@H]1O [((2R,3R,4R,5R,6R)-6-(3,4-dihydroxyphenethoxy)-5-hydroxy-2-(hydroxymethyl)-4-((2S,3R,4R,5R,6S)-3,4,5-trihydroxy-6-methyltetrahydro-2H-pyran-2-yloxy)tetrahydro-2H-pyran-3-yl) 3-(3,4-dihydroxyphenyl)acrylate] | 20.6 µM
COc1ccc(C(=O)CC=Nc2ccc([N+](=O)[O-])cc2C)c(OC)c1 [(E)-1-(2,4-dimethoxyphenyl)-3-(2-methyl-4-nitro-anilino)prop-2-en-1-one] | > 300 µM
COc1ccc(C(=O)CC=Nc2ccc([N+](=O)[O-])cc2C)cc1OC [(E)-1-(3,4-dimethoxyphenyl)-3-(2-methyl-4-nitro-anilino)prop-2-en-1-one] | 54.6 µM
O=C(CC=Nc1ccc([N+](=O)[O-])cc1)c1ccc(Br)cc1 [(E)-1-(4-bromophenyl)-3-(4-nitroanilino)-2-propen-1-one] | > 300 µM
Cc1ccc(N=CCC(=O)c2sc(-c3ccccc3)nc2C)cc1 [(E)-1-(4-methyl-2-phenyl-1,3-thiazol-5-yl)-3-(4-toluidino)-2-propen-1-one] | 46.4 µM
CC(=N)C(C#N)C(=O)CSc1ncnc2ccccc12 (configuration not stated) [(E)-3-amino-2-(2-quinazolin-4-ylsulfanylacetyl)but-2-enenitrile] | > 300 µM
O=CC(C=Nc1ccccn1)c1nc2cc(Cl)ccc2o1 (configuration not stated) [(Z)-2-(5-chloranyl-1,3-benzoxazol-2-yl)-3-(pyridin-2-ylamino)prop-2-enal] | 67.7 µM
COc1ccc(CCN2C(=O)NC(=O)C(=CNNC(=O)c3ccncc3)C2=O)cc1OC [Isonicotinic acid N'-[1-[2-(3,4-dimethoxy-phenyl)-ethyl]-2,4,6-trioxo-tetrahydro-pyrimidin-(5E)-ylidenemethyl]-hydrazide] | 150 µM
CCCCN1C(=O)NC(=O)C(=CNNC(=O)c2ccncc2)C1=O [Isonicotinic acid N'-[1-butyl-2,4,6-trioxo-tetrahydro-pyrimidin-(5E)-ylidenemethyl]-hydrazide] | > 300 µM
COc1cc(C2C3CN(C)CCC3=C(C#N)C(=N)C2(C#N)C#N)ccc1OC(C)C (configuration not stated) [MLS000034945] | > 300 µM
CC(=O)N1CCN(c2ccc(NC=C3C(=O)NC(=O)N(Cc4ccccc4)C3=O)cc2)CC1 [MLS000041641] | > 300 µM
CC(=O)Nc1ccc(N=CCC(=O)c2ccc(C)o2)cc1 [MLS000089004] | > 300 µM

From BindingDB's records for doi:10.7270/Q28G8J4C (Broad Institute, 2009)
